Data from patent publication US6518291B1, “Inhibitors of IMPDH enzyme” (Vertex Pharmaceuticals, Incorporated, priority 1997, dated 2003).

Molecular target: IMPDH human type II (Homo sapiens, UniProt P12268)
Assay: IMPDH Activity Inhibition Assay (spectrophotometric, NADH formation at 340 nm)
Assay type: biochemical
Settings: 37° C., tight-binding equations of Henderson
Experimental: We measured the inhibition constants of the compounds listed in Table II utilizing the following protocol:
IMP dehydrogenase activity was assayed following an adaptation of the method first reported by Magasanik. [Magasanik, B. Moyed, H. S. and Gehring L. B. (1957) J. Biol. Chem. 226, 339]. Enzyme activity was measured spectrophotometrically, by monitoring the increase in absorbance at 340 nm due to the formation of NADH (ε340 is 6220 M^−1 cm^−1). The reaction mixture contained 0.1 M Tris pH 8.0, 0.1 M KCl, 3 mM EDTA, 2 mM DTT, […] and enzyme (IMPDH human type II) at a concentration of 15 to 50 nM. This solution is incubated at 37° C. for 10 minutes. The reaction is started by adding NAD to a final concentration of […] and the initial rate is measured by following the linear increase in absorbance at 340 nm for 10 minutes. For reading in a standard spectrophotometer (path length 1 cm) the final volume in the cuvette is 1.0 ml. The assay has also been adapted to a 96 well microtiter plate format; in this case the concentrations of all the reagents remain the same and the final volume is decreased to 200 μl.
For the analysis of inhibitors, the compound in question is dissolved in DMSO to a final concentration of 20 mM and added to the initial assay mixture for preincubation with the enzyme at a final volume of 2-5% (v/v). The reaction is started by the addition of NAD, and the initial rates measured as above. Ki determinations are made by measuring the initial velocities in the presence of varying amounts of inhibitor and fitting the data using the tight-binding equations of Henderson (Henderson, P. J. F. (1972) Biochem. J. 127, 321].
Ki values are expressed in nM. Category “A” indicates 0.01 to 500 nm activity, category “B” indicates 501-5,000 nm activity, category “C” indicates 5,001 to 15,000 nm activity, category “D” indicates greater than 15,000 nm activity. The designation “ND” is used where a given compound was not tested.

## COc1cccc(Nc2nc3ccccc3o2)c1 [Compound 24]
  Ki: > 15000 nM

## COc1ccc(Nc2nc3ccccc3[nH]2)cc1 [Compound 3]
  Ki: > 15000 nM

## c1ccc(Nc2nc3ccccc3[nH]2)cc1 [Compound 2]
  Ki: > 15000 nM

## COc1cc(Nc2nc3ccc(C)cc3o2)ccc1-c1cnco1 [Compound 14]
  Ki: 0.01 to 500 nM

## COc1cc(Nc2nc3c(C)cccc3[nH]2)ccc1-c1cnco1 [Compound 16]
  Ki: 0.01 to 500 nM

## COc1cc(Nc2nc3ccccc3[nH]2)ccc1-c1cnco1 [Compound 5]
  Ki: 501 to 5000 nM

## COc1cc(Nc2nc3ccccc3s2)ccc1-c1cnco1 [Compound 9]
  Ki: 0.01 to 500 nM

## COc1cc(Nc2nc3ccccc3[nH]2)ccc1C#N [Compound 15]
  Ki: 5000 to 15000 nM

## COc1ccc(Nc2nc3ccccc3o2)cc1OC [Compound 19]
  Ki: > 15000 nM

## COc1cc(Nc2nc3cc(C)ccc3o2)ccc1-c1cnco1 [Compound 12]
  Ki: 0.01 to 500 nM

## COc1ccccc1Nc1nc2ccccc2s1 [Compound 7]
  Ki: > 15000 nM

## COc1cc(Nc2nc3cc(C)c(C)cc3o2)ccc1-c1cnco1 [Compound 17]
  Ki: 0.01 to 500 nM

## COc1cc(Nc2nc3ccccc3o2)ccc1C#N [Compound 21]
  Ki: > 15000 nM

## COc1cc(Nc2nc3ccccc3o2)ccc1-c1cnco1 [Compound 8]
  Ki: 0.01 to 500 nM

## COc1cc(Nc2nc3ccc(CO)cc3[nH]2)ccc1-c1cnco1 [Compound 11]
  Ki: 501 to 5000 nM

## N#Cc1ccc(Nc2nc3ccccc3o2)cc1Cl [Compound 20]
  Ki: > 15000 nM

## COc1ccccc1Nc1nc2ccccc2o1 [Compound 6]
  Ki: > 15000 nM

## COC(=O)c1ccc2nc(Nc3ccc(-c4cnco4)c(OC)c3)[nH]c2c1 [Compound 10]
  Ki: 0.01 to 500 nM

## Cc1ccc(Nc2nc3ccccc3[nH]2)cc1 [Compound 4]
  Ki: > 15000 nM

## c1ccc2oc(Nc3ccc(-c4cnco4)cc3)nc2c1 [Compound 18]
  Ki: > 15000 nM

## COc1cc(Nc2nc3ccccc3s2)ccc1C#N [Compound 13]
  Ki: 5000 to 15000 nM

## COc1cc(Nc2nc3cc(C)ccc3o2)ccc1-c1cnco1 [Compound 22]
  Ki: 501 to 5000 nM

## Clc1cc(Nc2nc3ccccc3o2)ccc1-c1cnco1 [Compound 23]
  Ki: 501 to 5000 nM

## C=CCc1cccc2nc(Nc3ccc(-c4cnco4)c(OC)c3)oc12 [Compound 25]
  Ki: 0.01 to 500 nM
